Measured values: US7893299B2, “Interleukin-1 and tumor necrosis factor-αmodulators; syntheses of such modulators and methods of using such modulators” (Nereus Pharmaceuticals, Inc., priority 2005, dated 2011)
pEC50: −log10 of the molar value. “Also recorded” adds a separate entry of the source. Read-outs that look alike come from different tables or passages of the source.

Experiments:
IL-10 production = test: LPS-stimulated IL-10 levels in RPMI 8226 cells (ELISA); format: cell-based, human; settings: 20 μM to 0.16 μM
Experimental: Ninety μl of 2.8×10^5/ml and 0.5 ml of 5×10^5/ml RMPI 8226 cells (#CCL-155C, American Type Culture Collection) were seeded in 96-well and 6-well plate in LGM-3 medium, respectively. Cells were cultured overnight at 37° C., 5% CO2 and 95% humidified air. 8-point serial dilution of TTL3 or formula (IIB-A1) was added to cells for 1 hr at the final concentration ranging from 20 μM to 0.16 μM. DMSO was used as control. After 1 hr, 50 ng/ml of LPS diluted in LGM-3 medium from 1 mg/ml stock solution was added to stimulate the cells for additional 10 hr. Supernatants were collected and IL-8 and IL-10 levels were analyzed by using the human IL-8 and IL-10 cytoset ELISA kits.

TPA-induced ear edema = test: TPA-induced mouse ear edema model; format: in vivo; settings: 500 ng per ear topically with TPA, 4 h
Experimental: 2.5 μg of TPA dissolved in 20 μl of DMSO, was applied to both surfaces of the right ear of each mouse. The left ear (control) received the vehicle (DMSO). Tested compounds were administered topically (500 ng per ear in 20 μl of DMSO) simultaneously with TPA application. The reference drug, indomethacin, was administered at the same doses. After 4 h, the animals were killed by cervical dislocation and a 6 mm diameter disc from each ear was removed with a metal punch and weighed. Ear edema was calculated by subtracting the weight of the left ear (vehicle) from the right ear (treatment). Ear sections were homogenized in 750 μl of saline. After centrifugation at 10000×g for 15 min at 4° C., myeloperoxidase (MPO) activity was measured in supernatants.

RPMI 8226 cells = test: cell growth inhibition, RPMI 8226, Resazurin, 1% FBS; format: cell-based, Human; settings: 48 hr of drug exposure
Experimental: (§1) Human prostate adenocarcinoma (PC-3; CRL-1435), multiple myeloma (RPMI 8226; CCL-155) and embryonic kidney (HEK-293; CRL-1573) cells were all purchased from ATCC and maintained in appropriate culture media. The cells were cultured in an incubator at 37° C. in 5% CO2 and 95% humidified air.
(§2) For cell growth inhibition assays, PC-3 and HEK-293 cells were seeded at 5×10^3 and 1.5×10^3 cells/well respectively in 90 μl media containing 1% (v/v) FBS into 96 well (Corning; 3904) black-walled, clear-bottom tissue culture plates and the plates were incubated overnight to allow cells to establish and enter log phase growth. RPMI 8226 cells were seeded at 2×10^4 cells/well respectively in 90 μl media containing 1% (v/v) FBS into 96 well plates on the day of the assay. 4 mg/ml stock solutions of the compounds were prepared in 100% DMSO and stored at −20° C. The compounds were serially diluted and added in triplicate to the test wells. LT-1-85 was tested at concentrations ranging from 27 μM to 8.6 nM. Concentrations ranging from 30 μM to 9.7 nM were tested for CC-3-13P. Formula (IIB-A1) was tested at concentrations ranging from 26 μM to 8.4 nM. The plates were returned to the incubator for 48 hours. The final concentration of DMSO was 0.25% in all samples.
(§3) Following 48 hours of drug exposure, 10 μl of 0.2 mg/ml Resazurin in Mg2+, Ca2+ free phosphate buffered saline was added to each well and the plates were returned to the incubator for 3-6 hours. Since living cells metabolize Resazurin, the fluorescence of the reduction product of Resazurin was measured using a Fusion microplate fluorometer (Packard Bioscience) with λex=535 nm and λem=590 nm filters. Resazurin dye in medium without cells was used to determine the background, which was subtracted from the data for all experimental wells. […] Where the maximum inhibition of cell growth was less than 50%, an EC50 value was not determined. The data in Table 25 summarize the growth inhibitory effects of LT-1-85, CC-3-13P and formula (IIB-A1) against HEK-293, PC-3 and RPMI 8226 cells. The EC50 values indicate that LT-1-85 and CC-3-13P are cytotoxic against HEK-293, PC-3 and RPMI 8226 cells. Formula (IIB-A1) is cytotoxic against RPMI 8226 cells.

PC-3 cells = test: cell growth inhibition, PC-3, Resazurin, 1% FBS; format: cell-based, Human; settings: 48 hr of drug exposure
Experimental: as §1, §2, §3

HPBMC = HPBMC cell viability, Resazurin; format: cell-based, Human; settings: for pEC50: HPBMC, 24 hr drug exposure, read-out: EC50 Inhibition of cell growth
Experimental: Eighty μl of 3.1×10^5/ml Human Peripheral Blood Mononuclear cells (HPBMC) were seeded in Costar 3904 96-well plate in LGM-3 medium and cultured for 12 hr at 37° C., 5% CO2 and 95% humidified air. 10 μl of 8-point half-log serial dilutions of LT-1-85, CC-3-19, CC-3-13P, formula (IIB-A1) and CC-3-22 prepared in LGM-3 medium was added to the cells and incubated for 1 hr. Subsequently, 10 μl of 500 ng/ml lipopolysaccharide (LPS) diluted in LGM-3 medium from 1 mg/ml stock solution was added to the cells and incubation proceeded for another 4 hr at 37° C., 5% CO2 and 95% humidified air. SB203580, a known p38 MAP kinase inhibitor and DMSO were used as positive and negative controls, respectively. After 4 hr stimulation with LPS, the level of TNF-α from each sample was analyzed by using the human TNF-α cytoset ELISA kit. EC50 values (the drug concentration at which 50% of the maximal observed TNF-α production is inhibited) were determined using a standard sigmoidal dose response curve fitting algorithm (Prism 2.0, GraphPad Software Inc). A duplicate set of cell plates were assayed for cell viability using the Resazurin dye after the cells were incubated with test compounds for 24 hr. The fluorescence of the reduction product of Resazurin was measured using a Fusion microplate fluorometer (Packard Bioscience) with λex=535 nm and λem=590 nm filters. EC50 values (the drug concentration at which 50% of the maximal observed growth inhibition is established) were determined using a standard sigmoidal dose response curve fitting algorithm (Prism 2.0, GraphPad Software Inc).

[1] = system: D-GalN/LPS endotoxic shock; test: lethality induced by D-GalN/LPS in mice; format: in vivo, BALB/c mice; settings: 5 μmol/kg i.p. 1 hour prior to D-GalN/LPS
Experimental: Male BALB/c mice, 8 to 10 weeks old were induced an endotoxic shock. The lethal injury was produced by an intraperitoneal (i.p.) injection of LPS (2 μg/kg) in combination with D-GalN (800 mg/kg). 5 μmol/kg of TTL3 or formula (IIB-A1) were administered by i.p. injection (0.5 ml) 1 hour prior to the challenge of D-GalN/LPS. Saline was given to the control animals. The lethality was monitored until 24 h after the administration of D-GalN/LPS.

| SMILES | LPS-induced IL-10 production (IL-10 production) | LPS-induced IL-10 production (IL-10 production; listed as formula (IIB-A1)) | ear edema (TPA-induced ear edema) | myeloperoxidase activity (TPA-induced ear edema) | ear edema (TPA-induced ear edema; listed as formula (IIB-A1)) | pEC50 (RPMI 8226 cells; Homo sapiens, RPMI-8226, 48 h) | pEC50 (PC-3 cells; Homo sapiens, PC-3, 48 h) | pEC50 (HPBMC; Homo sapiens, 24 h) | cell growth of HPBMC (in words) (HPBMC; concentrations up to 26 μM) | protection against lethality / survival time [1] | protection against lethality / survival time ([1]; listed as formula (IIB-A1)) | pEC50 (RPMI 8226 cells) | pEC50 (PC-3 cells) | pEC50 (HPBMC) |
| --- | --- | --- | --- | --- | --- | --- | --- | --- | --- | --- | --- | --- | --- | --- |
| C=C[C@@]1(C)CCC=C2[C@H]1CC[C@@H]1[C@](C)(C(=O)NC3CCCCC3)CCC[C@@]21C [Formula (IIB-A1), N-Cyclohexylamide Derivative of TTL] | reduces LPS-induced IL-8 and IL-10 production in a dose-dependent manner | inhibits the LPS-induced IL-8 and IL-10 production | inhibit TPA-induced ear edema | significantly attenuated | significantly reduced | 4.68 | < 4.59 | < 4.59 | did not inhibit | delay D-GalN/LPS lethality | extending three folds the survival time | – | – | – |
| C=C[C@@]1(C)CCC=C2[C@H]1CC[C@@H]1[C@](C)(C(=O)N3CCOCC3)CCC[C@@]21C [LT-1-85] | – | – | – | – | – | 4.85 | 4.66 | 5.42 | – | – | – | 4.89 | 4.72 | 5.44 |
| C=C[C@@]1(C)CCC=C2[C@H]1CC[C@@H]1[C@](C)(C(=O)OC)CCC[C@@]21C [TTL3] | inhibits the IL-10 production in a dose-dependent manner | – | significantly reduced; also recorded: inhibit TPA-induced ear edema | significantly attenuated | – | – | – | – | – | extending three folds the survival time; also recorded: delay D-GalN/LPS lethality | – | – | – | – |
